Laboratory results as given in publication PMC2768106, “Effects of VEGFR-3 phosphorylation inhibitor on lymph node metastasis in an orthotopic diffuse-type gastric carcinoma model” (British Journal of Cancer, 2009).

Target: T1, VEGFR-3 (vascular endothelial growth factor receptor-3, Flt-4) (Homo sapiens, UniProt P35916)
T1 construct: gene FLT4
Test: cell-free kinase (autophosphorylation) assay; also HUVEC cellular VEGFR-3 phosphorylation, IC50 […]
Type: biochemical

T1 sequence (P35916 25-1363): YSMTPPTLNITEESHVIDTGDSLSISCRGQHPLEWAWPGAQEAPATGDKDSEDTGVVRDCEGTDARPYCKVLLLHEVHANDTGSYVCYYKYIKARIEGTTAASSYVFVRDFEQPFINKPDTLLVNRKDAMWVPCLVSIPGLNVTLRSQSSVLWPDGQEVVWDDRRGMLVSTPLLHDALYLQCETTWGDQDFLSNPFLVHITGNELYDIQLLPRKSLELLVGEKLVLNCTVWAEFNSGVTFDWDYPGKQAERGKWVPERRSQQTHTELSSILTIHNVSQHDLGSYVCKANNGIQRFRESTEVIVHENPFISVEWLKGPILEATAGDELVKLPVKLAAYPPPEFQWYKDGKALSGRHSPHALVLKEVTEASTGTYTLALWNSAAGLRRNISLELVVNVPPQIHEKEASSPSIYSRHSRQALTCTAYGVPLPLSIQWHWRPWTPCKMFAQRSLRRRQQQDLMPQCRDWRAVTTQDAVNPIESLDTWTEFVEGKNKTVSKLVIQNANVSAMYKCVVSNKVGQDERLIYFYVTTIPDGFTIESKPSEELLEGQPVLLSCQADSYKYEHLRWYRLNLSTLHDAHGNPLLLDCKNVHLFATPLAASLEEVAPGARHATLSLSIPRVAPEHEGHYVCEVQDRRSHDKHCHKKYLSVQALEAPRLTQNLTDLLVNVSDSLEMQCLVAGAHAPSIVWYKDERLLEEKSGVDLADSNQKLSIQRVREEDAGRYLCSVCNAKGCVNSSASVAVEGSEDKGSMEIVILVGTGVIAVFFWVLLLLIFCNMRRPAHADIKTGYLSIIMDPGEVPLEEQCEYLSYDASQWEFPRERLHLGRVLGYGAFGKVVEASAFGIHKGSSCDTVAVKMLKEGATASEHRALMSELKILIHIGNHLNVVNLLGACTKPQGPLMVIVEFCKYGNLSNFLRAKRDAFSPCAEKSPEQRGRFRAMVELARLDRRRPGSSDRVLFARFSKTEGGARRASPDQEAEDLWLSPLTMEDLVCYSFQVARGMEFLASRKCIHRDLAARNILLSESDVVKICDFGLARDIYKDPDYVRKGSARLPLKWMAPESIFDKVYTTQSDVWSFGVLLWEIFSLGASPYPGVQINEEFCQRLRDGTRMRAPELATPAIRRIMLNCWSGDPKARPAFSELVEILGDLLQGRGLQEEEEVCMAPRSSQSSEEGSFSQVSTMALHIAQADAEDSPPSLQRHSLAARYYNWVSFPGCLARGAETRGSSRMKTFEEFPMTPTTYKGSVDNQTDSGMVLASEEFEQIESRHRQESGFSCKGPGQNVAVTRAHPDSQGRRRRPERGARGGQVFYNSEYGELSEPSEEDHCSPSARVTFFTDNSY

Work on COc1cc2c(Oc3ccc(Nc4ccc(C(C)(C)C)cc4)cc3)ccnc2cc1OCCNCCO [Ki23057] yielded an IC50 of 4.3 nM.
